The record followed here is paper PMC9356783, “Succinimide Derivatives as Antioxidant Anticholinesterases, Anti-α-Amylase, and Anti-α-Glucosidase: In Vitro and In Silico Approaches” (Evidence-based Complementary and Alternative Medicine : eCAM, 2022).

A short description of assay [1]: DPPH radical scavenging assay. As to conditions: for IC50: read-out: DPPH free radicals scavenging IC50. The procedure: A previously reported method for DPPH radical scavenging activity was used to determine the anti-oxidant activity of the synthetic compounds with insignificant modification. A solution of DPPH, e.g., (50 µL of 1.0 × 10^−3 M), was prepared freshly and then added to CH3OH (methyl alcohol). A solvent like methanol was used as a control group. The mixture was then incubated for 30 minutes at 25°C. A spectrophotometer is used to calculate the DPPH free radicals at specific wavelength like 517 nm. After the incubation period, Trolox (drug) was used as the control group (positive). The anti-oxidant activity was determined using the following formula:(1) Percent Inhibition=Absorbancecontrol−Absorbancetest sample/Absorbancecontrol×100.

The nature of assay [2]: ABTS radical scavenging assay. As to conditions: for IC50: read-out: ABTS free radicals scavenging IC50. On the procedure: A previously reported method for ABTS radical scavenging assay was used to determine the anti-oxidant activity of the synthetic compounds with negligible modification. The stock solution was prepared, e.g., 7 mM ABTS solution and 2.4 mM of potassium persulfate solution, and then mixed in equal amounts for about 16 hours. The stock solution was then diluted with methyl alcohol. Using a spectrophotometer, the absorption (0.7 ± 0.02) units at 734 nm wavelength were identified. In this assay, the solution was prepared freshly. The ABTS solution (150 µl) was mixed with the synthesized compounds (50 µl) and then reserved in darkness for about 10 minutes. The same procedure was repeated 3 times and then the results were verified using mean ± standard deviation. A solvent, e.g., methanol, was used as blank and the standard (butyl hydroxytoluen in methanol) were run at the same time. The absorbance was checked at a wavelength of 734 nm by utilizing a microplate reader.

A further assay deals with α-glucosidase (Saccharomyces cerevisiae, UniProt P53341). Kind of assay: α-Glucosidase inhibitory assay. In kind it is biochemical. The procedure: In this assay, glucopyranoside is added to the solvent (phosphate buffer). Various concentrations of the synthetized compounds like 500, 250, 125, 62.5, and 31.25 µg/ml were used for preparing the sample solutions. Glucosidase in distilled water (0.5 µg/ml) was added to the above mixture. This mixture was then incubated for 20 minutes at 37°C [36]. After the incubation period, the reaction mixture was ceased by the addition of hydrochloric acid. The color intensity was determined at 540 nm wavelength using a spectrophotometer. The formula which was used to determine percentage inhibition is:(3) Percent Inhibition=AbsorbanceControl−AbsorbanceSample/Absorbance Control×100.
α-glucosidase, sequence (P53341 whole entry): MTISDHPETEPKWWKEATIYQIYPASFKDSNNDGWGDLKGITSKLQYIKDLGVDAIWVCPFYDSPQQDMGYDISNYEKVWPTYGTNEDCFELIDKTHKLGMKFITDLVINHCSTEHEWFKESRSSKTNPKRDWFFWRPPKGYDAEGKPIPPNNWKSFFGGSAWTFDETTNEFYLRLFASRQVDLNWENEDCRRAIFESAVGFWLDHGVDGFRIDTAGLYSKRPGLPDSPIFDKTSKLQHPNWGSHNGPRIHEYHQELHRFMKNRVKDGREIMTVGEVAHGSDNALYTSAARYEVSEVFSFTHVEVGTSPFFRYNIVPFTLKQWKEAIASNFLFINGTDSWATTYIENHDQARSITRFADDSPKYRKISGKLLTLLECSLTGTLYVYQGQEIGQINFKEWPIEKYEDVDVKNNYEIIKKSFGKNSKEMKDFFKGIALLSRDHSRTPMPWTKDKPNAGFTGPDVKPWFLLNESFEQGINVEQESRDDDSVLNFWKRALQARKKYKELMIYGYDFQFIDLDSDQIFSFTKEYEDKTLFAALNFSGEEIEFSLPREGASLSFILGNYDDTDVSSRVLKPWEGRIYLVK

Another assay has as its target T1, α-amylase (Sus scrofa, UniProt P00690).
T1 sequence (P00690 16-511): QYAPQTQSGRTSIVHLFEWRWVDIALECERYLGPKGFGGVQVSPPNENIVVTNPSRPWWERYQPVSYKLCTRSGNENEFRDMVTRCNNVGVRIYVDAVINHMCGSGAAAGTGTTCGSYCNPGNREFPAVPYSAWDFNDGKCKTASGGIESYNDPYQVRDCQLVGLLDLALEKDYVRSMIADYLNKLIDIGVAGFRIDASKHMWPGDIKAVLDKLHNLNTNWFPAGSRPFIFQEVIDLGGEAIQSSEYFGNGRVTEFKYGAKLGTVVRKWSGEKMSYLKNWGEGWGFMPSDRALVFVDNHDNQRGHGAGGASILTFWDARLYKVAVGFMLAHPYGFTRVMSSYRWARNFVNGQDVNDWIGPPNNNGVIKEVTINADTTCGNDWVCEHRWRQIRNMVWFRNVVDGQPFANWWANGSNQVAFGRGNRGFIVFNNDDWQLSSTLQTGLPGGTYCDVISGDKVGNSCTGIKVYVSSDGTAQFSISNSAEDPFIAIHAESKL
Kind of assay: In vitro α-amylase inhibition assay. Format: biochemical. The procedure:
In this assay, previously documented protocols were used. […] Starch solution was then mixed with the above solution and then incubated for about 20 minutes at 37°C. After incubation, the reactant mixture was then kept in a water bath for some time at 100°C. Color intensity was measured using a microplate reader at 656 nm. To determine percentage inhibition, the following formula was used:(4) Percent Inhibition=AbsorbanceControl−AbsorbanceSample/Absorbance Control×100.

The target in assay [3] is T2, acetylcholinesterase (AChE) (Electrophorus electricus, UniProt O42275).
T2 construct: (AChE) acetylcholinesterase from electric eel; purchased Sigma Aldrich (local seller); host or cells: electric eel (natural source)
T2 sequence (O42275 24-633): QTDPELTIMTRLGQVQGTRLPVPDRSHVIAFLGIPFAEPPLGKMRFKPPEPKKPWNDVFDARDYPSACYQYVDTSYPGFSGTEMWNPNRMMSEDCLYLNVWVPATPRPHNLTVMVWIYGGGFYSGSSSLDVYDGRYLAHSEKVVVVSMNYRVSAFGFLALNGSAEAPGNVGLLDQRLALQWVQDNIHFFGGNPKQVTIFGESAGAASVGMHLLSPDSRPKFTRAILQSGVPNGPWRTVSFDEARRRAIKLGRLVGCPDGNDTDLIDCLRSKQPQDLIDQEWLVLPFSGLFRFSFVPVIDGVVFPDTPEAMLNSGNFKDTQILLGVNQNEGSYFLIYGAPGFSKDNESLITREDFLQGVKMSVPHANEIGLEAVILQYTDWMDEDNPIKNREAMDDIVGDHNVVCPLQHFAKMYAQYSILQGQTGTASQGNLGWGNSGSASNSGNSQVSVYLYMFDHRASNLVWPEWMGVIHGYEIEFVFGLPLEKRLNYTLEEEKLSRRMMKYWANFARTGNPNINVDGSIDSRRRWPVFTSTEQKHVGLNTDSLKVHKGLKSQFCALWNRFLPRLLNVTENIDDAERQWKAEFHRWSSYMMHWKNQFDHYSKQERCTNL
Description: biochemical. In kind it is biochemical. On the procedure: (§1) In Ellman's test, enzymes like (BChE) butyrylcholinesterase from equine serum and (AChE) acetylcholinesterase from electric eel were designated for studying the enzyme inhibitory capacity of the new synthesized compounds [33, 34].
(§2) Synthetic compounds in concentration ranging from 31.25 to 500 µg/ml, KH2PO4 (13.6 g/L) and K2HPO4 (17.4 g/L), were dissolved in 0.1 M phosphate buffer solution. After mixing, they were combined in 6 and 94% ratio, to make 0.1 M and 8.0 phosphate buffer solutions having […]. Potassium hydroxide was used to change the pH. The freshly prepared buffer […], AChE (518 U/mg solid), and BChE (7–16 U/mg) were diluted to achieve final absolute concentrations of 0.01 U/ml and 0.03 U/ml, respectively. In distilled water, BChI (0.0005 M), DTNB iedithio bis-nitrobenzoic acid solution (0.0002273 M), and AChI were prepared and then kept in the refrigerator [35].
(§3) After that, the substrate solution (5 μl) was added into the solution present in mixture form and was held in a water bath for 15 minutes at 30°C. Absorbance was measured at 412 nm using a double beam spectrophotometer. […] At 30°C, the absorbance and the time of the reaction were measured at 30°C for four minutes and repeated three times.

Assay [4] has as its target T3, butyrylcholinesterase (BChE) (Equus caballus, UniProt P81908).
T3 construct: (BChE) butyrylcholinesterase from equine serum; purchased Sigma Aldrich (local seller); host or cells: equine serum (natural source)
Kind of assay: biochemical. In kind it is biochemical. On the procedure: as §1, §2, §3

Setting [5] is: fifth value of series, presumably 31.25.
The mark [6] stands for this setting: first value of series, concentration not given (method 31.25 to 500 µg/ml).
[7] abbreviates: fourth value of series, presumably 62.5.
The mark [8] stands for this setting: second value of series, presumably 250.
[9] abbreviates: third value of series, presumably 125.
Setting [10] is: 500 μmol/mL (first value of the series).

Where “and” joins values, the source holds several entries; their conditions need not be identical. Equal entries are not always repeated.

T3 sequence (P81908 whole entry): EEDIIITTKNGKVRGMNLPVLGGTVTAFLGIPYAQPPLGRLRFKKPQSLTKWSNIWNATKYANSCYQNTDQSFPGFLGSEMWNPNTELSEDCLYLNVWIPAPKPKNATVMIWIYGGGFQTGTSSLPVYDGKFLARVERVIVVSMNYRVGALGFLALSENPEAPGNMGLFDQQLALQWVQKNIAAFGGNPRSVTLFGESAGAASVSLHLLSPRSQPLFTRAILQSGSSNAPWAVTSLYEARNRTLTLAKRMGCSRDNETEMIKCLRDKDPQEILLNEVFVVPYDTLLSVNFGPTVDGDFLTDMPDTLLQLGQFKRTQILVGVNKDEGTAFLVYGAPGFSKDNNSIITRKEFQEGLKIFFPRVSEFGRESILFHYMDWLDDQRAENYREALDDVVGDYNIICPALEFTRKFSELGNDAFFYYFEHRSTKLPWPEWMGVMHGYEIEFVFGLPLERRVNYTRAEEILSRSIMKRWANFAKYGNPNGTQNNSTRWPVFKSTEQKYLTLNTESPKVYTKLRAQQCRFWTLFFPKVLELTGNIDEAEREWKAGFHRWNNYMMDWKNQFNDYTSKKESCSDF

As to `CC1CCC(=O)C(C2CC(=O)N(Cc3ccccc3)C2=O)C1` (centres unmarked) [MSJ5, 1-benzyl-3-(5-methyl-2-oxocyclohexyl)pyrrolidine-2,5-dione], the IC50 worked out at 39 µM in assay [1] and 51.2 µM in assay [2].

Turning to `O=C1CCOCC1C1CC(=O)N(c2ccccc2)C1=O` (centres unmarked) [MSJ6, 3-(4-oxotetrahydro-2H-pyran-3-yl)-1-phenylpyrrolidine-2,5-dione], the IC50 is 44.9 µM in assay [1] and 55.1 µM in assay [2].

Turning to `CC(=O)CC1CC(=O)N(c2ccccc2)C1=O` (centres unmarked) [MSJ9, 3-(2-oxopropyl)-1-phenylpyrrolidine-2,5-dione], the figures for the IC50 in assay [1] and in assay [2] were 53 µM and 38.1 µM, respectively.

With `O=C1CCCCC1C1CC(=O)N(c2ccccc2)C1=O` (centres unmarked) [MSJ1, 3-(2-oxocyclohexyl)-1-phenylpyrrolidine-2,5-dione], the IC50 in assay [1] came to 34.6 µM; in assay [2], 29.4 µM.

Regarding `C[C@H]1O[C@H](O[C@H]2[C@H](O)[C@@H](O)[C@@H](O[C@H]3[C@H](O)[C@@H](O)C(O)O[C@@H]3CO)O[C@@H]2CO)[C@H](O)[C@@H](O)[C@@H]1N[C@H]1C=C(CO)[C@@H](O)[C@H](O)[C@H]1O` (some centres unmarked) [Acarbose], the α-glucosidase % inhibition at α-glucosidase (31.25 µmol/mL) is reported as 71.22 ± 0.47%; at α-glucosidase (62.5 µmol/mL) it was 76.44 ± 0.28%; at α-glucosidase (125 µmol/mL), 80.90 ± 1.11%; on α-glucosidase (250 µmol/mL), 85.03 ± 2.16%; at α-glucosidase (500 µmol/mL) it was 94.40 ± 0.03%. In addition, the α-amylase percent inhibition at α-amylase (31.25 µmol/mL) stood at 75.45 ± 0.90%; on α-amylase (62.5 µmol/mL), 77.61 ± 0.43%; on α-amylase (125 µmol/mL) it was 82.40 ± 0.20%; at α-amylase (500 µmol/mL), 91.90 ± 0.96%.

For `CC1CCC(=O)C(C2CC(=O)N(c3ccccc3)C2=O)C1` (centres unmarked) [MSJ4, 3-(5-methyl-2-oxocyclohexyl)-1-phenylpyrrolidine-2,5-dione], the values for the concentration for half-maximal inhibition (IC50) in assay [1] and in assay [2] were 32 µM and 48.7 µM, respectively.

In the case of `CC(=O)C(C)(C)C1CC(=O)N(c2ccccc2)C1=O` (centres unmarked) [MSJ10, 3-(2-methyl-3-oxobutan-2-yl)-1-phenylpyrrolidine-2,5-dione], the “percent radical scavenging (DPPH)” value in assay [1] (62.5 μmol/mL (fourth value)) was 79.67 ± 0.61%; in assay [1] (125 μmol/mL (third value)), 85.79 ± 0.63%; in assay [1] (250 μmol/mL (second value)), 90.90 ± 0.48%. The concentration for half-maximal inhibition (IC50) in assay [1] was 2.52 µM; in assay [2], 3.29 µM; in assay [3] (read-out: IC50 against AChE) it was 4.97 µM; in assay [4] (read-out: IC50 against BChE), 10.7 µM. For the same compound, the figures for the “percent inhibitions (ABTS)” value in assay [2] (62.5 µmo/mL (fourth value)), in assay [2] (125 µmo/mL (third value)) and in assay [2] (250 µmo/mL (second value)) were 79.67 ± 0.61%, 85.79 ± 0.63% and 90.90 ± 0.48%, respectively. Besides, the “percent anti-AChE potential” value in assay [3] (setting [5]) is 78.58 ± 1.12%; in assay [3] (setting [6]), 93.20% and 93.20 ± 0.10%; in assay [3] (setting [7]) it was 83.40 ± 0.25%; in assay [3] (setting [8]), 90.09 ± 0.32%; in assay [3] (setting [9]) it was 88.67 ± 1.20%. In addition, the “percent anti-BChE potential” value in assay [4] (setting [5]) is 73.89 ± 0.49%; in assay [4] (setting [6]) it was 91.36% and 91.36 ± 0.39%; in assay [4] (setting [7]), 78.26 ± 0.43%; in assay [4] (setting [8]), 87.15 ± 1.07%; in assay [4] (setting [9]), 83.00 ± 0.44%.

Consider `O=C1CCCCC1C1CC(=O)N(Cc2ccccc2)C1=O` (centres unmarked) [MSJ2, 1-benzyl-3-(2-oxocyclohexyl) pyrrolidine-2,5-dione], for which the “percent radical scavenging (DPPH)” value in assay [1] (31.25 μmol/mL (fifth value)) came out at 73.45 ± 0.65%; in assay [1] (62.5 μmol/mL (fourth value)), 78.23 ± 0.44%; in assay [1] (125 μmol/mL (third value)), 81.50 ± 0.61%; in assay [1] (250 μmol/mL (second value)) it was 84.47 ± 0.46%; in assay [1] (setting [10]), 86.47 ± 0.70%. Besides, the IC50 in assay [1] turned out to be 2.59 µM; in assay [2] it was 7.32 µM. In assay [2] (31.25 µmo/mL (fifth value)), the “percent inhibitions (ABTS)” value was 74.65 ± 1.34%. In assay [3] (setting [6]), the “percent anti-AChE potential” value turned out to be 91.90%. Further, the “percent anti-BChE potential” value in assay [4] (setting [6]) is listed as 97.30%.

Turning to `O=C1O[C@H]([C@@H](O)CO)C(O)=C1O` [Ascorbic acid, reference compound], the “percent radical scavenging (DPPH)” value in assay [1] (31.25 μmol/mL (fifth value)) was 86.42 ± 0.43%; in assay [1] (62.5 μmol/mL (fourth value)), 88.22 ± 1.28%; in assay [1] (125 μmol/mL (third value)), 91.52 ± 0.66%; in assay [1] (250 μmol/mL (second value)), 93.56 ± 0.45%; in assay [1] (setting [10]) it was 98.65 ± 1.32%. For the same compound, the concentration for half-maximal inhibition (IC50) in assay [1] was 6.25 µM; in assay [2] it was 4.66 µM.

In the case of `O=C1CCCC1C1CC(=O)N(c2ccccc2)C1=O` (centres unmarked) [MSJ8, 3-(2-oxocyclopentyl)-1-phenylpyrrolidine-2,5-dione], the half-inhibitory concentration (IC50) in assay [1] stood at 29.2 µM; in assay [2] it was 25.2 µM.

For `O=C1CCCCCC1C1CC(=O)N(c2ccccc2)C1=O` (centres unmarked) [MSJ7, 3-(2-oxocycloheptyl)-1-phenylpyrrolidine-2,5-dione], the concentration for half-maximal inhibition (IC50) in assay [1] is 31.4 µM; in assay [2] it was 36.3 µM.

Take `O=C1CCCCC1C1CC(=O)N(c2ccc(Br)cc2)C1=O` (centres unmarked) [MSJ3, 1-(4-bromophenyl)-3-(2-oxocyclohexyl) pyrrolidine-2,5-dione]: the concentration for half-maximal inhibition (IC50) in assay [1] worked out at 33.5 µM; in assay [2] it was 24 µM.
